Measured values from patent publication US11026426B2, “Oxadiazole and phenol derivatives as antibacterial and/or herbicidal agents” (NORTHERN ILLINOIS RESEARCH FOUNDATION, priority 2017, dated 2021).
Where two headings read alike, the source gives them in different places.

What was measured:
Ec IspD [1] = molecular target: T1, Ec IspD (Escherichia coli, UniProt Q46893); experiment: EnzChek enzymatic activity assay Ec IspD; type: biochemical
Procedure: The EnzChek® assay has a phosphate sensitivity of 2-150 μM. To ensure there is no interference caused by assay components, three standards were performed on each plate: buffer only, without CTP and without MEP.
Here, for the plate-based assay, IspD converts MEP to CDP-ME pyrophosphate, which in turn is converted to inorganic phosphate (Pi) with the enzyme inorganic pyrophosphatase. The EnzChek® Phosphate Assay kit follows the formation of the inorganic phosphate through a reaction with 2-amino-6-mercapto-7-methylpurine riboside (MESG) and the enzyme purine nucleoside phosphorylase (PNP). This reaction converts the MESG into ribose 1-phosphate and 2-amino-6-mercapto-7-methylpurine resulting in a spectrophotometric shift in a maximum absorbance from 330 nm to 360 nm. Reactions were performed in 50 μL final volumes in 96-well clear flat bottom plates, and were initiated by addition of 50 ng purified Ec IspD. Absorbance at 360 nm was measured every 31 seconds for 20 minutes on a Synergy 2 Multi-Mode plate reader (BioTek), preheated to 37° C. Final concentration of reagents was as follows: 1×EnzChek® reaction buffer (50 mM Tris pH 7.5, 1 mM magnesium chloride (MgCl2), 100 μM sodium azide (NaN3)), 0.2 mM MESG, 1 U/ml PNP, 1 U/mL inorganic Pyrophosphatase (NEB), 200 mM CMP (Sigma), and 50 μM MEP (Echelon).

Ec IspD [2] = molecular target: T1, Ec IspD; experiment: Thermal shift (DSF) screening against Ec IspD; type: binding; conditions: for change in the observed melting temperature of Ec IspD: MicroSource Spectrum screening
Procedure: The library based screening technique in conjunction with the thermal shift assay was implemented to evaluate compounds from Spectrum collection.
All DSF experiments were performed in 50 mM phosphate buffer at pH 7.4, 150 mM NaCl, 1×SYPRO orange, 2% DMSO and 200 to 1000 nM of the enzyme with a total volume of 25 μL. Final enzyme concentrations used were […] for Ec IspD and 0.5 μM for Bt IspD. Samples were measured on a Bio-Rad iQ5 Real-Time PCR (Bio-Rad Life Sciences) using a temperature range of 25 to 95° C. at a rate of 1° C. per minute with the fluorescence measured every 0.5° C. every 10 seconds with wavelengths of 530 and 570 nm used for excitation and emission, respectively. The melting temperature (Tm value) was determined from the first derivative of the graph of relative fluorescence units vs. temperature.

[3] = molecular target: T2, Mycobacterium tuberculosis IspD (MtIspD) (Mycobacterium tuberculosis, UniProt P9WKG9); experiment: Thermal shift assay against MtIspD; type: binding
T2 sequence (P9WKG9 1-231): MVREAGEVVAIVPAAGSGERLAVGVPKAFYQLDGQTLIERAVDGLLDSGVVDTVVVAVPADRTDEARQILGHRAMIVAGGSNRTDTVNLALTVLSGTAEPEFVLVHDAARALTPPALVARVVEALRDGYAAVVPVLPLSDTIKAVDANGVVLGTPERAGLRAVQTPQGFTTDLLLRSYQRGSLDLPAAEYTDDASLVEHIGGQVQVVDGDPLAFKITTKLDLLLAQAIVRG

[4] = molecular target: Lycopersicon esculentum IspE (LeIspE) (Solanum lycopersicum, UniProt P93841); experiment: Thermal shift assay against LeIspE; type: binding
Chain of Lycopersicon esculentum IspE (LeIspE) (P93841 89-401): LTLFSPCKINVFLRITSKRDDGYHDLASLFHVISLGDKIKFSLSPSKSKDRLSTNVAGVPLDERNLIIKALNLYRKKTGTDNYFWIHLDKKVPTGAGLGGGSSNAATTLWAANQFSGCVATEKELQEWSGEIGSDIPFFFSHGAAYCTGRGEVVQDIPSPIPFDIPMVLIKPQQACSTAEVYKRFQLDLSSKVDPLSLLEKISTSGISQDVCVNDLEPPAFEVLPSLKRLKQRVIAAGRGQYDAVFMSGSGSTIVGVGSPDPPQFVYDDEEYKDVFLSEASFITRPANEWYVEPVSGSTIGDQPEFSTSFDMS

[5] = molecular target: Mycobacterium paratuberculosis IspD (MpIspD) (Mycolicibacterium paratuberculosis, UniProt Q743W5); experiment: Thermal shift assay against MpIspD; type: binding; conditions: MpIspD
Chain of Mycobacterium paratuberculosis IspD (MpIspD) (Q743W5 whole entry): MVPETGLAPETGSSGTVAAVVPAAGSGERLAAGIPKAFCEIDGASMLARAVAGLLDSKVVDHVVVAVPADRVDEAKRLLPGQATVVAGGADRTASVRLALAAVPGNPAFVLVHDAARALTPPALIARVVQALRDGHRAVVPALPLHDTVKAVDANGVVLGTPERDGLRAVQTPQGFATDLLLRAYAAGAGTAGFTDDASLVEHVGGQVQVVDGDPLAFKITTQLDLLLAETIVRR

lettuce seeds = experiment: Lettuce leaf assay; type: in vivo; design: key: 0 (no effect); 5(complete inhibition or bleaching); conditions: ranking 0-5
In short: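 Qualitative assay: compounds in volatile organic solvent applied to filter paper in a petri dish, solvent evaporated, lettuce seeds and 5 mL water added to give test concentrations. Germination, root development and leaf bleaching scored days 3 and 4, ranked 0 (no effect) to 5 (complete inhibition or bleaching).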

AtIspD = AtIspD (Arabidopsis thaliana, UniProt P69834); experiment: University of Hamburg photometric enzymatic inhibition assay AtIspD; type: biochemical; conditions: read-out: AtIspD IC50
Chain of AtIspD (P69834 62-302): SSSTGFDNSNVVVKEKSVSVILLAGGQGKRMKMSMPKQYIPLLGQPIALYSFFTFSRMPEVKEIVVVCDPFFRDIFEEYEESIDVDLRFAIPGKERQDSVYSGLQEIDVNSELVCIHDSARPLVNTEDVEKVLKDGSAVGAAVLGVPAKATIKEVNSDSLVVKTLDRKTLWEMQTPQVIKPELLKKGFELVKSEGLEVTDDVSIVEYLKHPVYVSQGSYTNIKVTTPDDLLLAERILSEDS
In short: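 Coupled photometric assay: 2.4 mU AtIspD with 1 mM (2R,3S)-2,3-dihydroxy-4-oxopentyl phosphate, 2.1 mM CTP, excess IspE (0.4 U), ATP, pyruvate kinase/lactate dehydrogenase and 460 μM NADH. Run in 100 mM Tris-HCl pH 8.0, 10 mM MgCl2, 1 mM DTT, 1.1% DMSO at 27 °C, monitored photometrically.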

LeIspE = LeIspE (Solanum lycopersicum, UniProt P93841); experiment: University of Hamburg photometric enzymatic inhibition assay LeIspE; type: biochemical, Lycopersicon esculentum; conditions: read-out: LeIspE IC50
Chain of LeIspE (P93841 89-401): as the sequence (P93841 89-401) above
In short: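 Photometric coupled assay with pyruvate kinase/lactate dehydrogenase following NADH (460 μM). Mix: 100 mM Tris-HCl pH 8.0, 10 mM MgCl2, 1 mM DTT, 2.5 mM phosphoenolpyruvate, 2 mM ATP, 1 mM 4-diphosphocytidyl-2-C-methylerythritol, 1.1% DMSO, 2.4 mU IspE; incubated at 27° C.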

AtIspF = AtIspF (Arabidopsis thaliana, UniProt Q9CAK8); experiment: University of Hamburg photometric enzymatic inhibition assay AtIspF; type: biochemical; conditions: read-out: AtIspF IC50
Chain of AtIspF (Q9CAK8 53-231): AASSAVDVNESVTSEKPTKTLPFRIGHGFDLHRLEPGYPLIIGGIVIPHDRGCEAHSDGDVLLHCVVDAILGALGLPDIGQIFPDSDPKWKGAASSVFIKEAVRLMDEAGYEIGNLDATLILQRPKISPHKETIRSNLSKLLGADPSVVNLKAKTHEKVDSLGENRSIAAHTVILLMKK
In short: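 Coupled photometric assay (CMP kinase/pyruvate kinase/lactate dehydrogenase, NADH consumption) with 2.4 mU AtIspF and 1 mM 4-diphosphocytidyl-2C-methylerythritol 2-phosphate, 2 mM ATP, in 100 mM Tris-HCl pH 8.0, 10 mM MgCl2, 1.1% DMSO. Monitored at 27 °C.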

[6] = system: Burkholderia thailandensis; type: cell-based; conditions: preliminary screening, score 0-3
Mycobacterium smegmatis = experiment: Antibacterial preliminary screening MS; type: cell-based; conditions: score 0-3; note: key: 0 represents no inhibition; 3 is comparable to commercial antibiotic control
Corynebacterium xerosis = experiment: Antibacterial preliminary screening CX; type: cell-based; conditions: score 0-3; note: key: 0 represents no inhibition; 3 is comparable to commercial antibiotic control
[7] = system: Corynebacterium pseudodiphtheriae; experiment: Antibacterial preliminary screening CP; type: cell-based; conditions: score 0-3;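 note: 0 is no inhibition and 3 matches the commercial antibiotic control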
Escherichia coli = experiment: Antibacterial preliminary screening EC; type: cell-based; conditions: score 0-3; note: key: 0 represents no inhibition; 3 is comparable to commercial antibiotic control
Klebsiella pneumonia = experiment: Antibacterial preliminary screening KP; type: cell-based; conditions: score 0-3; note: key: 0 represents no inhibition; 3 is comparable to commercial antibiotic control
Micrococcus luteus = experiment: Antibacterial preliminary screening ML; type: cell-based; conditions: score 0-3; note: key: 0 represents no inhibition; 3 is comparable to commercial antibiotic control
Bacillus cereus = experiment: Antibacterial preliminary screening BC; type: cell-based; conditions: score 0-3; note: key: 0 represents no inhibition; 3 is comparable to commercial antibiotic control
Pseudomonas aeruginosa = experiment: Antibacterial preliminary screening PA; type: cell-based; conditions: score 0-3; note: key: 0 represents no inhibition; 3 is comparable to commercial antibiotic control
E. coli IspD = E. coli IspD (Escherichia coli, UniProt Q46893); experiment: IspD assay (Washington University, EnzCheck phosphate) EcIspD; type: biochemical; conditions: up to 100 μM; bar graph at 12.5 and 100 μM
Chain of E. coli IspD (Q46893 whole entry): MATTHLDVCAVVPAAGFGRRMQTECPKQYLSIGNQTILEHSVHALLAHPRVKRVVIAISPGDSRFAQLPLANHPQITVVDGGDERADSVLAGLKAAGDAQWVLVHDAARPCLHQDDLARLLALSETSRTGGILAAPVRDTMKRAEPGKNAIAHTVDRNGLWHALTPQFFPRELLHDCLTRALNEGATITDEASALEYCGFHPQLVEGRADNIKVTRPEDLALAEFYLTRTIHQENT
Procedure: Compounds were tested against IspD from Escherichia coli and Plasmodium falciparum. The assay measured activity through monitoring phosphate levels released by IspD enzyme over time using conditions published previously. The assay utilized the EnzCheck phosphate assay kit to quantify phosphate released by IspD. Reactions were done in a 96-well plate with each well containing a final volume of 50 μL. Concentrations of reagents were as follows: 100 mM NaCl, 25 mM Tris at pH 7.0, 7.5 mM MgCl2, 1 mM dithiothreitol, 1 U/mL purine nucleoside phosphorylase, and 0.1 U/mL yeast inorganic pyrophosphatase, 50 μM CTP, 500 μM MEP, 0.1% DMSO, and 0.2 mM 2-Amino-6-mercapto-7-methyl puring riboside. Reactions with EclspD used 2 nM EclspD and reactions with PfIspD used 50 nM PfIspD. Reactions involved pre-warming the enzyme and buffers to 37° C. with different inhibitor concentrations followed by the addition of the purified MEP substrate. Absorbance was measured at 360 nm over time and values were used to create regression analysis curves from three trials and values were converted to (μM MEP)(μM enzyme)^−1s^−1 using a standard phosphate curve. These values were then used to identify percent activity compared to enzyme activity without the inhibitor. Results are indicated.

P. falciparum IspD = P. falciparum IspD (Plasmodium falciparum, UniProt Q8I273); experiment: IspD assay (Washington University, EnzCheck phosphate) PfIspD; type: biochemical
Chain of P. falciparum IspD (Q8I273 entry or part of it): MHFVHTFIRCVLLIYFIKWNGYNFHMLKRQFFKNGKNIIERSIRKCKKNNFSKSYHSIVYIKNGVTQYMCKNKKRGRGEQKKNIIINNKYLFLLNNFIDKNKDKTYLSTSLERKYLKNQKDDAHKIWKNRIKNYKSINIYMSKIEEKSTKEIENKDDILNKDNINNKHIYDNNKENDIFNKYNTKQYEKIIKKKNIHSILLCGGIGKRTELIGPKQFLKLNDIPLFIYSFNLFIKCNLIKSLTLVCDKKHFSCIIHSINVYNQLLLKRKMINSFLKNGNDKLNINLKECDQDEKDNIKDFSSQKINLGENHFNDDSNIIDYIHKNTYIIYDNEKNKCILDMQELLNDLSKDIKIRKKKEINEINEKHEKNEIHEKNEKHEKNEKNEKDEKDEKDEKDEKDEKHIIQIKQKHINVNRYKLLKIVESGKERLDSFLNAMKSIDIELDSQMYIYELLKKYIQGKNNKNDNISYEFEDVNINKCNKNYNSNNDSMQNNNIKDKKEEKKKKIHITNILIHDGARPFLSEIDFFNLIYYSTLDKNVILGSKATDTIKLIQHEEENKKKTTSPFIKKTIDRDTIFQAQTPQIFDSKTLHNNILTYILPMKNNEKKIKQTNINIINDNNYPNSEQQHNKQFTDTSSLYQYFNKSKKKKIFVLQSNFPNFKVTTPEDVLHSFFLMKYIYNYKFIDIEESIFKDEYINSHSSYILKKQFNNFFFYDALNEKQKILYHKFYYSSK

Bt IspD = Bt IspD (Burkholderia thailandensis, UniProt Q2SWT6); type: binding
Chain of Bt IspD (Q2SWT6 whole entry): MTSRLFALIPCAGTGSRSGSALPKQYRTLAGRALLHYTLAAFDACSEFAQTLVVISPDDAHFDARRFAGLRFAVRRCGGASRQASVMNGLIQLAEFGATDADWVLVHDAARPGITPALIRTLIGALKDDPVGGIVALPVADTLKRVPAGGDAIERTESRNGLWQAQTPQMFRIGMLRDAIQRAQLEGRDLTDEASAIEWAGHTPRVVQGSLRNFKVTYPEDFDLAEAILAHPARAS
Procedure: ITC studies were performed with a Microcal VP-ITC titration calorimeter (Malvern Instruments). Proteins were dialyzed overnight against four liters of buffer (20 mM sodium phosphate, 150 mM NaCl, pH 7.4). Compounds were dissolved in DMSO and brought to concentration with the dialysis buffer, with a maximum DMSO concentration of 10% by volume, and centrifuged at 10,000 RPM for 10 minutes. DMSO concentrations were matched between the protein and ligand. The dialysis buffer was used for all sample dilutions to ensure buffers matching between the titrant and titrate, thus minimizing the excess heat due to buffer mismatch. The Pace method was utilized for the determination of the extinction coefficients at 280 nm for Ec IspD (30,940 M^−1 cm^−1) and Bt IspD (41,940 M^−1 cm^−1). Cytidine triphosphate's extinction coefficient was 9,100 M^−1 cm^−1. The absorbance values of protein and CTP solutions were determined using the NanoDrop (in triplicate). All other compound concentrations were determined by dry weight. ITC experiments were performed with IspD in the cell and ligand in the syringe, which is at 100 times the concentration of the sample in the cell due to the low predicted affinities for IspD.
The initial injection volume was 2 μL (omitted) followed by 27 10 μL injections, every 240 seconds. Samples were run at 25° C., at pH 7.4, with a stirring speed of 307 RPM. Dilution runs were performed to allow determination of background heats caused by solution mismatch and instrument noise. Dilution runs were performed with ligand (at the same concentration as in the experiment run) in the syringe titrated into the dialysis buffer in the cell. Data were fit using OriginPro 7 with the ITC add-on by the manufacturer.
ITC studies were performed to observe the dissociation constant along with thermodynamic properties of the reactant CTP with Bt IspD.

T1 sequence (Q46893 whole entry): as the sequence (Q46893 whole entry) above

Row | Compound | MtIspD melting temp [3] [°C] | LeIspE melting point change [4] [°C] | LeIspE melting temp [4] [°C] | Bleaching (lettuce seeds; 0.5 mM) | Germination (lettuce seeds; 0.5 mM) | Root Dev. (lettuce seeds; 0.5 mM) | Bleaching (lettuce seeds; 1.0 mM) | IC50 (AtIspD) [µM] | IC50 (LeIspE) [µM] | IC50 (AtIspF) [µM] | BT score [6] | MS score (Mycobacterium smegmatis) | CX score (Corynebacterium xerosis) | CP score [7] | EC score (Escherichia coli) | KP score (Klebsiella pneumonia) | ML score (Micrococcus luteus) | BC score (Bacillus cereus) | PA score (Pseudomonas aeruginosa) | melting point [°C] | further results
1 | O=C(/C=C/c1ccc(O)cc1)c1ccc(O)cc1O [isoliquiritigenin] |  |  |  |  |  |  |  |  |  |  |  |  |  |  |  |  |  |  |  |  | IC50 (Ec IspD [1]): 279 ± 12 µM
2 | CC(C)c1cc2c(c(O)c1O)[C@@]1(C(=O)O)CCCC(C)(C)[C@@H]1CC2 [carnosic acid] |  |  |  |  |  |  |  |  |  |  |  |  |  |  |  |  |  |  |  |  | IC50 (Ec IspD [1]): 794 ± 100 µM
3 | C[CH2][Hg][S]c1ccccc1C(=O)[O-].[Na+] [thimerosal, reference compound] |  |  |  |  |  |  |  |  |  |  |  |  |  |  |  |  |  |  |  |  | change in the observed melting temperature of Ec IspD (Ec IspD [2]): +3.53 °C; IC50 (Ec IspD [1]; EnzChek assay, read-out: Ec IspD IC50): 381 ± 12 µM
4 | [O-][n+]1ccccc1S [2-mercaptopyradine-N-oxide, 2-mercaptopyridine-N-oxide] |  |  |  |  |  |  |  |  |  |  |  |  |  |  |  |  |  |  |  |  | effect on thermal stability of Ec IspD (Ec IspD [2]): did not have an effect on the thermal stability
5 | CC(=O)[O-].CC(=O)[O-].[Cd+2] [cadmium acetate] |  |  |  |  |  |  |  |  |  |  |  |  |  |  |  |  |  |  |  |  | change in the observed melting temperature of Ec IspD (Ec IspD [2]): −13.53 °C
6 | [O-][n+]1ccccc1[S][Zn][S]c1cccc[n+]1[O-] [Zinc Pyrathione] |  |  |  |  |  |  |  |  |  |  |  |  |  |  |  |  |  |  |  |  | change in the observed melting temperature of Ec IspD (Ec IspD [2]): −7.72 °C
7 | FC(F)(F)c1nnc(-c2cc3ccccc3[nH]2)o1 [HGN-211, 2-(1H-indol-2-yl)-5-(trifluoromethyl)-1,3,4-oxadiazole] | 49.3 | −0.75 | 48.75 | 0 | 1 | 0 | 0 | > 1000 | > 1000 | > 1000 | 0 | 0 | 0 | 0 | 0 | 0 | 0 | 0 | 0 | 182 to 184 | MtIspD melting point change [3]: 1.3 °C; increase in melting point over HGN-207 [5]: 0.3 °C; Germination (lettuce seeds; 1.0 mM): 2; Root Dev. (lettuce seeds; 1.0 mM): 0
8 | Clc1ccc(-c2nnc(-c3cc4ccccc4[nH]3)o2)cc1 [HGN-213, 2-(4-chlorophenyl)-5-(1H-indol-2-yl)-1,3,4-oxadiazole] | 48.8 | −2.00 | 47.50 |  |  |  |  | 490 | 326 ± 29 | > 1000 | 0 | 0 | 0 | 0 | 0 | 0 | 0 | 0 | 0 | 265 to 270 | MtIspD melting point change [3]: 0.8 °C; Bleaching (lettuce seeds; 0.2 mM): 0; Germination (lettuce seeds; 0.2 mM): 1; Root Dev. (lettuce seeds; 0.2 mM): 0; inhibition of E. coli IspD activity (E. coli IspD): some activity; IC50 (P. falciparum IspD): ~100 µM
9 | FC(F)(F)c1ccc(-c2nnc(-c3cc4ccccc4[nH]3)o2)cc1 [HGN-214, 2-(1H-indol-2-yl)-5-(4-(trifluoromethyl)phenyl)-1,3,4-oxadiazole] | 49.8 | −1.00 | 48.50 | 0 | 1 | 0 | 0 | > 1000 | 269 ± 23 | > 1000 | 0 | 0 | 0 | 0 | 0 | 0 | 0 | 0 | 0 | 258 to 260 | Bleaching (lettuce seeds; 0.2 mM): 0; Germination (lettuce seeds; 0.2 mM): 0; Root Dev. (lettuce seeds; 0.2 mM): 0; Germination (lettuce seeds; 1.0 mM): 3; Root Dev. (lettuce seeds; 1.0 mM): 0; inhibition of E. coli IspD activity (E. coli IspD): some activity; IC50 (P. falciparum IspD): ~100 µM
10 | Nc1ccn([C@@H]2O[C@H](COP(=O)(O)OP(=O)(O)OP(=O)(O)O)[C@@H](O)[C@H]2O)c(=O)n1 [CTP, Cytidine triphosphate] |  |  |  |  |  |  |  |  |  |  |  |  |  |  |  |  |  |  |  |  | KD app (ITC, words) (Bt IspD): in the millimolar range; entropic contribution −TΔS (ITC) (Bt IspD): 5.6±1.838; ΔH° (ITC) (Bt IspD; stoichiometry fixed at two CTPs per dimer): -6.991 ± 1.749 kcal/mol
11 | CC(C)c1nnc(-c2cc3ccccc3[nH]2)o1 [HGN-240, 2-(1H-indol-2-yl)-5-isopropyl-1,3,4-oxadiazole] | 48.8 | −1.50 | 48.00 | 0 | 1 | 0 | 0 | > 1000 | > 1000 | > 1000 | 0 | 0 | 0 | 0 | 0 | 0 | 0 | 0 | 0 | 164 to 170 | MtIspD melting point change [3]: 0.8 °C; Germination (lettuce seeds; 1.0 mM): 2; Root Dev. (lettuce seeds; 1.0 mM): 0
12 | c1ccc2[nH]c(-c3nnc(C4CCCC4)o3)cc2c1 [HGN-252, 2-cyclopentyl-5-(1H-indol-2-yl)-1,3,4-oxadiazole] | 49.5 | −2.50 | 47.00 | 0 | 1 | 0 | 0 | > 1000 | > 1000 | > 1000 | 0 | 0 | 0 | 0 | 0 | 0 | 0 | 0 | 0 | 150 to 154 | Germination (lettuce seeds; 1.0 mM): 2; Root Dev. (lettuce seeds; 1.0 mM): 0; inhibition of E. coli IspD activity (E. coli IspD): significant activity
13 | C[CH2][Hg][Cl] [ethyl mercuric chloride] |  |  |  |  |  |  |  |  |  |  |  |  |  |  |  |  |  |  |  |  | effect on thermal stability of Ec IspD (Ec IspD [2]): affected the stability of the enzyme
